From patent US5480645A, “Hydroxyamines N-acyl derivatives having scavenger activity and useful in acute and chronic pathologies associated with peroxidation and inflammation phenomena” (LifeGroup S.p.A., priority 1992, dated 1996)

Legend:
[1] = tested on: rat liver microsomes (membrane phospholipid peroxidation); assay: Antiperoxidative activity on rat liver microsomes, NADPH/Fe+2/ADP induced peroxidation (MDA formation); assay type: biochemical; conditions: for peroxidation inhibition / MDA: NADPH/Fe+2/ATP, Table 1-A; for MDA: control 42.5
Description: Before the final resuspension mitochondria ape washed with 0.125M KCl containing 15 mM Hepes/10 mM tris at pH=7.4. Rat liver microsomes are prepared as described by Ernster and Nordenbrand (Ernster, Nordenbrand K. Methods Enzymol. 1967, 10:574-80). […]
b) 20 mM Hepes-Tris buffer pH=7.4, 0.5 mM cumene hydroperoxide in the presence or in the absence of the compounds to be tested. The trials after incubation are interrupted with 1 ml 35% TCA which 30 mg BHT and 1 ml 1% TBA (thiobarbituric acid) have been added to. Subsequently the incubation is carried out for 15' at 90° C. in order to allow the development of the coloured adduct.
(§1) A common oxidation product, malonyldialdehyde (MDA), to the two oxidant systems described in (a) and in (b), is measured.
The formed MDA is evaluated by spectrophotometry at 532 nm and calculated by using a molar extinction coefficient of 156.000 (Buege J. A. and Aust S. D., Methods Enzymol., 52, 302-310, 1978).
The tested compounds are solubilized in the culture medium up to the desired concentrations (see tables 1-3). […]
The antiperoxidase activity is measured as % of inhibition of malonyldialdehyde formation.

[2] = tested on: rat liver microsomes (membrane phospholipid peroxidation); assay: Antiperoxidative activity on rat liver microsomes, cumene hydroperoxide induced peroxidation (MDA formation); assay type: biochemical; conditions: for peroxidation inhibition / MDA: 0.5 mM cumene hydroperoxyde, Table 3; for MDA: control 12.8
Description: b) 20 mM Hepes-Tris buffer pH=7.4, 0.5 mM cumene hydroperoxide in the presence or in the absence of the compounds to be tested. […] Subsequently the incubation is carried out for 15' at 90° C. in order to allow the development of the coloured adduct.
as §1
The tested compounds are solubilized in the culture medium up to the desired concentrations (see tables 1-3).
As peroxidant agent 0.5 mM cumene hydroperoxyde is used. As oxidation index the formation of malonyldialdehyde (MDA) is measured (nmoles/mg protein).

[3] = tested on: rat cerebellar granular cells; assay: Protection against glutamate neurotoxicity in rat cerebellar granular cell cultures; assay type: cell-based
Description: Primary cerebellar granular cell cultures are prepared from 8 days old Sprague-Dawly rats. Neurons are grown on 35 mm plates for 7-8 days. […] Glial cells proliferation is prevented by cytosine arabinose-furanoside.
Cells are washed in Locke solution free from Mg^2+ then replated in the conditionned culture medium.
The solution is diluted serially up to 10, 20 and 50 μM. The compounds at the desired concentrations are added to the cells at 37 ° C.; after 15' 50 μM glutamate free from Mg^2+ is added For 15 minutes at 22 ° C.
The cells are then washed 3 times with Locke solution, then added to the original culture medium and maintained at 37 ° C. in 5 % CO2 for 24 hours.
The cellular survival is measured by using a fluorescence microscope.

mast cells = assay: In vivo antidegranulating activity in rat mast cells (substance P induced); parameters: species or system Sprague Dawley rats; conditions: s.c. 20 mg/kg; substance P 10^-6 M in auricular pinna; substance P effect taken as 100% degranulation
Description: 1. In vivo antidegranulating activity in rat mast cells.
The pharmacological treatment is preceded (20 min. before) by the degranulating stimulus induced by P substance (10^-6 M) injected in the auricular pinna. After 20 minutes from the degranulating stimulus, the animals are sacrificed. Their tissues are then taken (auricular pavilion) for the morphological aspect analysis of the mast cells residing in the connective tissues after fixation and coloration with toluidine blue.
The inhibition level of the mast cells degranulation in the animal tissue treated with the tested compounds in comparison with the animals treated only with the degranulating agent is considered as the parameter of the biological activity.
*the inhibition percentage is calculated considering that the effect of
the substance P is maximum (100% of mast cells degranulation).

Solubility = assay type: physicochemical
C6 glioma cells = assay: Protection against 5 mM glutamate cytotoxicity in glioma C6 cultures; conditions: Rattus norvegicus, C6 glioma, 24 h, read-out: % Cell survival
[4] = tested on: granular cerebellar cells; assay: Protection against 2 mM glutamate cytotoxicity in immature granular cerebellar cell cultures; conditions: Mus musculus, 24 h, read-out: % Cellular survival
Description: The tested compounds are solubilized in DMSO at a concentration of from 1 to 100 μM.

[5] = in vitro, 10 to 50 μM dose/effect relationship for the test compound

SMILES: Cc1c(C)c2c(c(C)c1O)CC(CC(=O)NCCO)O2 (stereo not drawn) [Example 1, 2-(2,3-dihydro-5-hydroxy-4,6,7-trimethylbenzofuran)-acetic acid 2 hydroxyethylamide]
- peroxidation inhibition ([1]; 10 μM): 21%
- MDA ([1]; 10 μM): 33.5 nmoles/mg prot.
- peroxidation inhibition ([1]; 20 μM): 49%
- MDA ([1]; 20 μM): 21.3 nmoles/mg prot.
- effect compared with the corresponding acid (in words) ([1]; Tab. 1-A and 3 (NADPH/Fe+2/ADP and cumene peroxide)): consistently higher than that of the comparison product namely the corresponding acid
- inhibition of the peroxidation induced by NADPH/Fe+2/ADP (in words) [1, 5]: able to inhibit the peroxidation induced by NADPH/Fe^+2 /ADP (a)
- peroxidation inhibition ([2]; 20 μM): 47%
- MDA ([2]; 20 μM): 6.84 nmoles/mg prot.
- peroxidation inhibition ([2]; 50 μM): 80%
- MDA ([2]; 50 μM): 2.5 nmoles/mg prot.
- inhibition of the peroxidation induced by cumene peroxide (in words) [2, 5]: able to inhibit the peroxidation induced by NADPH/Fe^+2 /ADP (a) and by cumene peroxide (b)
- viability at 10 µM ([3]; Rattus norvegicus, 24 h, 10 μM, against 50 μM glutamate, Table 4, control 100, read-out: cell survival): 33%
- viability at 20 µM ([3]; Rattus norvegicus, 24 h, 20 μM, against 50 μM glutamate, Table 4, control 100, read-out: cell survival): 50%
- viability at 50 µM ([3]; Rattus norvegicus, 24 h, 50 μM, against 50 μM glutamate, Table 4, control 100, read-out: cell survival): 85%
- protection against glutamate exogenous neurotoxicity (in words) ([3]; dose-effect relationship): able to protect against the glutamate exogenous neurotoxicity
- inhibition % (mast cells degranulation induced by substance P) (mast cells): 19%
- solubility (Solubility; organic solvent or mixture, in ethanol, DMSO, chloroform, read-out: solubility in org. solv.): > 10000 µg/mL
- water solubility (Solubility; water): slightly soluble
- viability at 1 µM (C6 glioma cells): 13%
- viability at 3 µM (C6 glioma cells): 88%
- viability at 10 µM (C6 glioma cells): 89%
- viability at 1 µM [4]: 31%
- viability at 3 µM [4]: 40%
- viability at 10 µM [4]: 94%
